Reference: patent US5945436A, “Pyridylmethyl nitriles, amides and thioamides useful as fungicides” (Uniroyal Chemical Company, Inc., priority 1997, dated 1999)

Assays:
Erysiphe polygoni = assay: Powdery mildew on pinto bean, foliar application (ERY POL); format: in vivo; settings: similar procedure as barley (1,000 mg/l); for pest or weed control at 1000 µg/mL: Erysiphe polygoni, read-out: Percent Reduction of Disease, ERY POL
Description: (§1) Compositions containing Compounds Nos. 1-81 were prepared by dissolving 0.24 grams of each of the compounds in 8 ml of acetone or other suitable inert solvent. Each of the resultant solutions was treated with 3 drops of TWEEN 20 (ethoxylated ethylene sorbitan monolaurate, a non-ionic surfactant)(I.C.I.), and water was added to form an emulsion. The degree of dilution with water was dictated by the desired concentration of the compound in the composition. The greater the quantity of water added, the lower the concentration of the compound in the composition, reported in milligrams per liter (mg/l) Ten plants of "Robust" variety barley were planted in each of a plurality of pots. Each pot was then either sprayed with one of the compositions of Example 9, at a composition concentration of 1,000 mg/l, or left unsprayed. For each pot sprayed, one pot was left unsprayed as a control. After the leaves of the sprayed pots were dried, the sprayed pots and the unsprayed control pots were placed in a greenhouse maintained at 21° C. All the pots were then inoculated with barley powdery mildew fungus, Erysiphe graminis. This inoculation was accomplished by distributing spores of the fungus over the leaves of the plants to be tested from plants which had previously been infected with the mildew disease. […] Again, percent control was computed by comparing the treatment scores with the scores of the untreated controls. The results are summarized in Table II under the heading "ERY GRA". Using a similar procedure as described above for the barley, pinto bean plants were prepared, treated and inoculated with the fungus Erysiphe polygoni. The results of this testing are summarized in Table II under the heading "ERY POL".

Erysiphe cichoracearum = assay: Powdery mildew of cucumber, systemic root uptake (CMS); format: in vivo; settings: 45 ml of 250 mg/l, 8 days after inoculation
Description: (§2) Compositions containing Compounds Nos. 1-81 were prepared by dissolving 0.24 grams of each of the compounds in 8 ml of acetone or other suitable inert solvent. Each of the resultant solutions was treated with 3 drops of TWEEN 20 (ethoxylated ethylene sorbitan monolaurate, a non-ionic surfactant)(I.C.I.), and water was added to form an emulsion. The degree of dilution with water was dictated by the desired concentration of the compound in the composition. The greater the quantity of water added, the lower the concentration of the compound in the composition, reported in milligrams per liter (mg/l) […] Upon reaching these ages, the plants were either treated with 45 ml of 250 mg/l concentration of the compositions of Example 9 or were left untreated. The untreated plants were used as controls. The 45 ml compositions saturated the soil of the treated pots without significant loss through drainage into the saucers below the pots. Twenty-four hours after the treatment with the compositions, both the barley and cucumber plants in all the pots, those treated and those untreated, were inoculated with powdery mildew fungus. This was accomplished by tapping leaves of previously infected barley and cucumber plants over the treated and untreated pots containing the barley and cucumber plants, respectively, to distribute spores of the fungus over the plants tested. […] Intermediate ratings were assigned depending on the degree of disease. […] The results of the powdery mildew disease control of barley are reported under the heading of "BMS". The results for cucumber mildew control are reported under the heading "CMS".

Erysiphe graminis [1] = assay: Powdery mildew of barley, systemic root uptake (BMS); format: in vivo; settings: 45 ml of 250 mg/l, 8 days after inoculation
Description: as §2

Septoria nodorum = assay: Fungal growth inhibition, treated disc on agar (SEP NOD); format: cell-based; settings: disc dipped in 500 mg/l, 29° C.; for inhibition at 500 µg/mL: Parastagonospora nodorum, read-out: Percent Growth Inhibition, SEP NOD
Uromyces phaseoli = assay: Bean rust fungus eradicant test (URO PHA); format: in vivo; settings: pinto bean, eradicant spray 2 days after inoculation, 1,000 mg/l; for pest or weed control at 1000 µg/mL: Uromyces phaseoli, 216 h, read-out: Percent Reduction of Disease, URO PHA
Description: Compositions containing Compounds Nos. 1-81 were prepared by dissolving 0.24 grams of each of the compounds in 8 ml of acetone or other suitable inert solvent. Each of the resultant solutions was treated with 3 drops of TWEEN 20 (ethoxylated ethylene sorbitan monolaurate, a non-ionic surfactant)(I.C.I.), and water was added to form an emulsion. The degree of dilution with water was dictated by the desired concentration of the compound in the composition. The greater the quantity of water added, the lower the concentration of the compound in the composition, reported in milligrams per liter (mg/l) A plurality of pots were each planted with two pinto bean plants, Phaseolus vulgaris, each, susceptible to rust disease. When the plants were 7 days old, at the primary leaf stage of growth, they were all sprayed with a suspension containing 20,000 spores of the bean rust fungus, Uromyces phaseoli, per ml. All the pots were then incubated in a controlled environmental chamber, maintained at 99% humidity and 21° C., for 24 hours to allow infection to occur. The plants were then removed from the incubator and allowed to dry. Two days after inoculation each of the infected plants was then either sprayed with one of the compositions of Example 9, at a dosage of 1,000 mg/l, or left unsprayed. The unsprayed plants acted as controls. All of the sprayed and unsprayed plants were then placed in a greenhouse at 21° C. for nine days to allow the disease to develop. […] Control of disease was determined by comparing treated plants with the untreated controls. The results, expressed as percent reduction of disease, are summarized in Table II under the heading "URO PHA".

Rhizoctonia solani = assay: Fungal growth inhibition, treated disc on agar (RHI SOL); format: cell-based; settings: disc dipped in 500 mg/l, 29° C.; for inhibition at 500 µg/mL: Rhizoctonia solani, read-out: Percent Growth Inhibition, RHI SOL
Fusarium oxysporum = assay: Fungal growth inhibition, treated disc on agar (FUS OXY); format: cell-based; settings: disc dipped in 500 mg/l, 29° C.; for inhibition at 500 µg/mL: Fusarium oxysporum, read-out: Percent Growth Inhibition, FUS OXY
Erysiphe graminis [2] = assay: Powdery mildew in barley, foliar application (ERY GRA); format: in vivo; settings: foliar, 1,000 mg/l, 8 days after inoculation; for pest or weed control at 1000 µg/mL: Blumeria graminis, foliar, 192 h, read-out: Percent Reduction of Disease, ERY GRA
Description: as §1, with “GRA".” for “GRA". Using a similar procedure as described above for the barley, pinto bean plants were prepared, treated and inoculated with the fungus Erysiphe polygoni. The results of this testing are summarized in Table II under the heading "ERY POL".”

| SMILES | pest or weed control at 1000 µg/mL (Erysiphe polygoni) | Percent Reduction of Disease, CMS (Erysiphe cichoracearum) | Percent Reduction of Disease, BMS (Erysiphe graminis [1]) | inhibition at 500 µg/mL (Septoria nodorum) | pest or weed control at 1000 µg/mL (Uromyces phaseoli) | inhibition at 500 µg/mL (Rhizoctonia solani) | inhibition at 500 µg/mL (Fusarium oxysporum) | pest or weed control at 1000 µg/mL (Erysiphe graminis [2]) | Percent Reduction of Disease, ERY POL (Erysiphe polygoni) | Percent Growth Inhibition, SEP NOD (Septoria nodorum) | Percent Reduction of Disease, URO PHA (Uromyces phaseoli) | Percent Growth Inhibition, RHI SOL (Rhizoctonia solani) | Percent Growth Inhibition, FUS OXY (Fusarium oxysporum) | Percent Reduction of Disease, ERY GRA (Erysiphe graminis [2]) |
| --- | --- | --- | --- | --- | --- | --- | --- | --- | --- | --- | --- | --- | --- | --- |
| CCCCCCC(C#N)(CCc1ccc(F)cc1)c1cccnc1 (centres unmarked) [Compound 45] | 90% | 67% | 0% | 100% | 92% | 6% | 14% | 92% |  |  |  |  |  |  |
| Cc1ccc(CCC(C#N)(CCCC(F)(F)F)c2cccnc2)cc1 (centres unmarked) [Compound 79] | 100% | 92% | 92% | 30% | 0% | 35% | 46% | 100% |  |  |  |  |  |  |
| CCCC(C#N)(CCc1ccccc1F)c1cccnc1 (centres unmarked) [Compound 75] | 100% | 0% | 100% | 100% | 83% | 100% | 100% | 92% |  |  |  |  |  |  |
| CCCCC(C#N)(CCCc1ccc(Cl)cc1)c1cccnc1 (centres unmarked) [Compound 13] | 100% | 0% | 40% | 75% | 100% | 100% | 60% | 100% |  |  |  |  |  |  |
| CCCCCC(C#N)(CCc1ccc(F)cc1)c1cccnc1 (centres unmarked) [Compound 60] | 90% | 0% | 75% | 100% | 50% | 100% | 20% | 100% |  |  |  |  |  |  |
| N#CC(CCCF)(CCc1ccc(F)cc1)c1cccnc1 (centres unmarked) [Compound 64] | 100% | 0% | 20% | 100% | 70% | 20% | 100% | 0% |  |  |  |  |  |  |
| CCCCCC(C#N)(CCc1ccc(OC)cc1)c1ccccn1 (centres unmarked) [Compound 30] |  | 0% | 0% |  |  |  |  |  | 100% | 96% | 100% | 10% | 100% | 100% |
